In assay [1] the target is T1, HER4: human epidermal growth factor receptor 4 (Homo sapiens, UniProt Q15303).
T1 construct: purchased Carna
Briefly: In vitro enzyme inhibitory activity (Caliper, FAM labeled peptide). It is filed as biochemical. To be noted: HER4 kinase, 28° C., 1 h. The method, then:
(§1) In vitro enzyme inhibitory activity of the present compounds
HER4: human epidermal growth factor receptor 4 (Carna).
(§2) 1. Formulating the agents to be used in the assay
(§3) (3) Stop buffer (100 mM HEPES, pH 7.5, 0.015% Brij-35, 0.2% Coating Reagent #3, 50 mM EDTA);
(§4) (6) 5-fold compound solutions (using 100% DMSO to formulate 50-fold compound solutions having different concentration gradients, and diluting with water by 10 times to obtain 5-fold compound solutions having different concentration gradients);
(§5) 2. Adding 5 μL of a 5-fold compound solution to a 384-well plate;
(§6) 3. Adding 10 μL of a 2.5-fold kinase solution to incubate for 10 min;
(§7) 4. Then adding 10 μL of a 2.5-fold peptide solution, and reacting at 28° C. for 1 h; and
(§8) 5. Finally, adding 25 μL of stop buffer to terminate the reaction, and reading the data with Caliper.
(§9) 6. Curve fitting to obtain an IC50 value. The calculated inhibition ratio (%)=(the maximum conversion rate−the conversion rate)/(the maximum conversion rate−the minimum conversion rate)×100
(§10) The curve fitting was conducted with the Xlfit software to obtain IC50 values.

Assay [2] addresses T2, HER2: human epidermal growth factor receptor 2 (Homo sapiens, UniProt P04626).
T2 construct: purchased Carna
The assay is described as above. It counts as biochemical. To be noted: HER2 kinase, 28° C., 1 h. The method, then: as §1
HER2: human epidermal growth factor receptor 2 (Carna);
as §2, §3, §4, §5, §6, §7, §8, §9, §10

For assay [3], the target named is T3, EGFR: human epidermal growth factor receptor (Homo sapiens, UniProt P00533).
T3 construct: purchased Carna
T3 sequence (P00533 25-1210): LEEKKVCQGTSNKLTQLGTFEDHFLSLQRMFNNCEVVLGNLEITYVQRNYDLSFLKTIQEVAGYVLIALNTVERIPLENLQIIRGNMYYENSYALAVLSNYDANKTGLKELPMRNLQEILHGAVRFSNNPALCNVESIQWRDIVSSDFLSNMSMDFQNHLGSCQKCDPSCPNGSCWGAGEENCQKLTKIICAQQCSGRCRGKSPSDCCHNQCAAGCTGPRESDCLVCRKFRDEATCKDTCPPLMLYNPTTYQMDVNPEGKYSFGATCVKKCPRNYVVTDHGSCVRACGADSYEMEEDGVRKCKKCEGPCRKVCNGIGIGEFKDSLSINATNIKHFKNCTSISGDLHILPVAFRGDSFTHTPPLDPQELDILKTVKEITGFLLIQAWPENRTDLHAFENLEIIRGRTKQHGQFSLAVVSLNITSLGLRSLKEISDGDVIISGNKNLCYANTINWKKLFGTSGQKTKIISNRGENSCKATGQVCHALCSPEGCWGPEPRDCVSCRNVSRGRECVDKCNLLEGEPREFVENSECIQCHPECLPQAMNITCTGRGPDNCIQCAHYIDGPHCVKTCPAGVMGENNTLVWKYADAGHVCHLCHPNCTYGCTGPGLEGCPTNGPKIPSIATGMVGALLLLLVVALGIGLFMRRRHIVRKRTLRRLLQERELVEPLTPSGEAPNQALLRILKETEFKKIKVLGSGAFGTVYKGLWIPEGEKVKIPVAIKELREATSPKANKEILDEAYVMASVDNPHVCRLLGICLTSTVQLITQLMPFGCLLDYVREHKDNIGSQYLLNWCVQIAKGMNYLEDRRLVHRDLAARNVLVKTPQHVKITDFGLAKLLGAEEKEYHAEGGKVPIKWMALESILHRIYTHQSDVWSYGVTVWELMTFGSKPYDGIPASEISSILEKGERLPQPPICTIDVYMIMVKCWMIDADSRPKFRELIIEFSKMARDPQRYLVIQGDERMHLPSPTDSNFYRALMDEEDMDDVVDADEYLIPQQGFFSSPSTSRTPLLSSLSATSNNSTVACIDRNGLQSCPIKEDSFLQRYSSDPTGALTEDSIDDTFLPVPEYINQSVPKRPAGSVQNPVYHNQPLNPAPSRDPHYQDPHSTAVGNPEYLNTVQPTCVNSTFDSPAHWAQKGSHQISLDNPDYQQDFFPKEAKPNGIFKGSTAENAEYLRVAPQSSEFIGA
The description is as above. The settings on record: EGFR kinase, 28° C., 1 h. It counts as biochemical. As for the experimental part:
as §1
EGFR: human epidermal growth factor receptor (Carna);
as §2, §3, §4, §5, §6, §7, §8, §9, §10

In assay [4] the test system is H1975 Cells (NSCLC, non-small cell lung cancer). Briefly: In vitro cellular inhibitory activity, XTT method. It is filed as cell-based. The settings on record: Homo sapiens, NCI-H1975, 72 hours, read-out: in vitro cellular inhibitory activities on H1975 IC50. As for the experimental part:
(§11) In vitro cellular inhibitory activity of the present compounds
(§12) 1. Formulating the agents and the compounds
(§13) 2) Formulating the XTT working liquor: […]
(§14) The mixture was filtered, packaged separately, and used immediately or within one week. It is necessary for all of the processes to be kept in darkness.
(§15) 3) Formulating test compounds
(§16) Formulating a stock solution of test compound: […]
(§17) The compound powder was dissolved into DMSO until a concentration of 10 mM reached.
(§18) Formulating gradient dilute solutions of test compound: […]
(§19) First, the 10 mM stock solution of test compound was diluted with DMSO in a 4-fold successive gradient for 10 concentrations. 2 μL DMSO-diluted compound was added to 998 μL of the culture medium containing 10% FBS. Therefore, the maximum concentration of the compound is 20 μM, the concentration of DMSO is 0.2%, and there are 10 concentration gradients in total.
(§20) 1) Preparing the cell suspension
(§21) The culture medium was removed from the culture bottle. The cells were rinsed twice with PBS. The pancreatic enzyme was added to digest cells. The digested cells were collected by centrifuge. The cells were resuspended with a culture medium containing 10% fetal calf serum, counted and adjusted to an appropriate concentration (the cell viability should be over 90%). The cell concentration was 5×10^4/ml.
(§22) 2) The cell suspension was added to the 96-well plate, 100 μL per well.
(§23) 3) The plate was placed in the incubator and incubated at 37° C. under 5% CO2 overnight.
(§24) Drugs were added to the cell culture plate. The plate was placed in the incubator and incubated at 37° C. under 5% CO2 for 72 hours.
(§25) 5. Testing the cell viability with the XTT method
(§26) The XTT working solution was added to the plate. The plate was placed in the incubator and incubated at 37° C. under 5% CO2 for 2 hr. Then the plate was placed in a microplate reader to read the absorbance at 450 nm.
(§27) 2) Data were input into GraphPad Prism 5.0 to plot a curve and obtain IC50.

In assay [5] the test system is A431 cells (Epidermoid carcinoma). In words: In vitro cellular inhibitory activity, XTT method. It counts as cell-based. To be noted: Homo sapiens, A-431, 72 hours, read-out: in vitro cellular inhibitory activities on A431 IC50. As for the experimental part:
as §11, §12, §13, §14, §15, §16, §17, §18, §19, §20, §21, §22, §23, §24, §25, §26, §27
In general terms: Formazan colour is commonly taken as a measure of viable cells.

The test system of assay [6] is SKOV3 cells (Ovarian carcinoma). In words: In vitro cellular inhibitory activity, XTT method. It counts as cell-based. The settings on record: Homo sapiens, SK-OV-3, 72 hours, read-out: in vitro cellular inhibitory activities on SKOV3 IC50. As for the experimental part:
as §11, §12, §13, §14, §15, §16, §17, §18, §19, §20, §21, §22, §23, §24, §25, §26, §27

This passage reports IC50 results from patent US9956222B2, “Quinazoline derivative as tyrosine-kinase inhibitor, preparation method therefor and application thereof” (Xuanzhu Pharma Co., Ltd., priority 2011, dated 2018).

T2 sequence (P04626 23-1255): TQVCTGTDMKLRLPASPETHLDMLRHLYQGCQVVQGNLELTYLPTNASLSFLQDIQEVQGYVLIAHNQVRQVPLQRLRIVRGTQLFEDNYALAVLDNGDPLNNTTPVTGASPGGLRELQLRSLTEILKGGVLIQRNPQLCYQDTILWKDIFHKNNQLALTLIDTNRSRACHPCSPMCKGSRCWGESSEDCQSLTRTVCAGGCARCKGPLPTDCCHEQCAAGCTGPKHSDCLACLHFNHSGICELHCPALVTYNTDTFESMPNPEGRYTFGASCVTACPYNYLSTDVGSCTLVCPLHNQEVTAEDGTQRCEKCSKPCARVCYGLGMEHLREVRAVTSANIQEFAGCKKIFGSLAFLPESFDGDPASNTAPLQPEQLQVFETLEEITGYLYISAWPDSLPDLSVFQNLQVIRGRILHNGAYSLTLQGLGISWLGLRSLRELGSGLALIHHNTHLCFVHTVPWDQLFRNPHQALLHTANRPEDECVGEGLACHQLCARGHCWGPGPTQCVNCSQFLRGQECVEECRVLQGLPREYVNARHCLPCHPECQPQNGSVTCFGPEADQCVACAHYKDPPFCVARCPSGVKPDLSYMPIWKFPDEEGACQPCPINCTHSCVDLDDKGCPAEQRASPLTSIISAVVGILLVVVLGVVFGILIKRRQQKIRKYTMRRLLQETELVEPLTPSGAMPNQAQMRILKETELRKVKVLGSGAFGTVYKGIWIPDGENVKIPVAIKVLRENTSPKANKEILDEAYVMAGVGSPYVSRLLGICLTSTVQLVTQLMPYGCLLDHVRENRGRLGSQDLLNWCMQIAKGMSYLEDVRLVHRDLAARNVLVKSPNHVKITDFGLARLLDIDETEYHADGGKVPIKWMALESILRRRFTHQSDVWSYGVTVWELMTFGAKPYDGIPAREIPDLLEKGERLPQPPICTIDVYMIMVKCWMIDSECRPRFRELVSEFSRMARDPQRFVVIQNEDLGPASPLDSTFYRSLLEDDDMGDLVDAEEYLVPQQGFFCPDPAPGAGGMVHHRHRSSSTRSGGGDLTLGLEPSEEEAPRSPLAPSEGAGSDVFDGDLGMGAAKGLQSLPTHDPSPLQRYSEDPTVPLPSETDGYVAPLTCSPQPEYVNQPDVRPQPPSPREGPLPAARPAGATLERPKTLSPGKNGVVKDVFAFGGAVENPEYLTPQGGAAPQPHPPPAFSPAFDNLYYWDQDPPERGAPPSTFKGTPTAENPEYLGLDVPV
T1 sequence (Q15303 26-1308): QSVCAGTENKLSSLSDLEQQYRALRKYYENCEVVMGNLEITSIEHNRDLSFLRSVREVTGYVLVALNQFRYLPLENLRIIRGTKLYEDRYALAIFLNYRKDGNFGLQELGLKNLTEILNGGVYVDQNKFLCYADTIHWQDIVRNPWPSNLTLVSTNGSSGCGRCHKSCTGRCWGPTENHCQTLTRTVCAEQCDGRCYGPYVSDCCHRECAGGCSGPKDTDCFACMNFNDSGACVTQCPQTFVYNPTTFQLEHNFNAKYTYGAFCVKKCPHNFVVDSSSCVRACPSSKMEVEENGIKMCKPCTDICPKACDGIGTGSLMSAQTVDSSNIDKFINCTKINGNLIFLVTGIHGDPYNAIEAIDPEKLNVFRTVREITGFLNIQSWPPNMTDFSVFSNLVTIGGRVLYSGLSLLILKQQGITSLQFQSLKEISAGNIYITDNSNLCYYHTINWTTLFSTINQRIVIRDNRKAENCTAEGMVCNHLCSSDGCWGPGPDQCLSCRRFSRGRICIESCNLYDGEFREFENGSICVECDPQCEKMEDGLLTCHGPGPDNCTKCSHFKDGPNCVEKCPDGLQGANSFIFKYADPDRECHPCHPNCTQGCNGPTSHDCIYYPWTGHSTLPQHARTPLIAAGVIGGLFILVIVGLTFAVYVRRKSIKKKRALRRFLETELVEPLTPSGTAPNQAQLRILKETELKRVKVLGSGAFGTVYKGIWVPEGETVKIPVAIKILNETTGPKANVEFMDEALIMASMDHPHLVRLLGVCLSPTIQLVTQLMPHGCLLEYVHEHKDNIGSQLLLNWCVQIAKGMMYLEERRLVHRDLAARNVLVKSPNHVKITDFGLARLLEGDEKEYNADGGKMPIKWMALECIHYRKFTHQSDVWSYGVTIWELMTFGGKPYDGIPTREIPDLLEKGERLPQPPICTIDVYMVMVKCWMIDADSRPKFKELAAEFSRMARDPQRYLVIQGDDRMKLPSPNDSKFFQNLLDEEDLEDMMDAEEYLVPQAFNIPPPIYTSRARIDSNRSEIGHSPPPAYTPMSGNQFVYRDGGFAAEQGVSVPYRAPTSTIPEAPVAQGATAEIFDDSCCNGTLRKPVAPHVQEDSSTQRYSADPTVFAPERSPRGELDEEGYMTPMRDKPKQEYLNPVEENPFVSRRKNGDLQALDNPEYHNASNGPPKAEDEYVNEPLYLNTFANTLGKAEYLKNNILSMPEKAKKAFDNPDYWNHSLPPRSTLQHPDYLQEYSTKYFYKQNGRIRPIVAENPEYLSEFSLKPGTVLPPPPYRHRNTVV

By IC50 is commonly meant the concentration that gives 50% inhibition. As to `COc1cc2ncnc(Nc3ccc(F)c(Cl)c3)c2cc1NC(=O)/C=C/CN1CC2CC2C1` (stereo not drawn) [Compound 1, (E)-4-[3-azabicyclo[3.1.0]hexan-3-yl]-N-[4-(3-chloro-4-fluorophenylamino)-7-methoxyquinazolin-6-yl]-2-butenamide], the IC50 in assay [1] is 3.1 nM; in assay [2], 14 nM; in assay [3], 0.55 nM.
With `COc1cc2ncnc(Nc3ccc(F)c(Cl)c3)c2cc1NC(=O)/C=C/CN1CC2(CCC2)C1` [Compound 2], the IC50 worked out at 148 nM in assay [4]; 33.3 nM in assay [5]; 3.22 µM in assay [6]; 8.9 nM in assay [1]; 19 nM in assay [2]; 0.65 nM in assay [3].
As to `COc1cc2ncnc(Nc3ccc(F)c(Cl)c3)c2cc1NC(=O)/C=C/CN1CC2(CCCC2)C1` [Compound 14, (E)-N-[4-(3-chloro-4-fluorophenylamino)-7-methoxyquinazolin-6-yl]-4-(2-azaspiro[3.4]octan-2-yl)-2-butenamide], the IC50 in assay [4] is 134 nM; in assay [6] it was 3.71 µM.
On the same counts, the results for `COc1cc2ncnc(Nc3ccc(F)c(Cl)c3)c2cc1NC(=O)/C=C/CN1CC2(CCCCC2)C1` [Compound 15, (E)-N-[4-(3-chloro-4-fluorophenylamino)-7-methoxyquinazolin-6-yl]-4-(2-azaspiro[3.5]nonan-2-yl)-2-butenamide] are 179 nM and 3.65 µM.
For the compound `COc1cc2ncnc(Nc3ccc(F)c(Cl)c3)c2cc1NC(=O)/C=C/CN1CCC2(CCC2)CC1` [Compound 17, (E)-N-[4-(3-chloro-4-fluorophenylamino)-7-methoxyquinazolin-6-yl]-4-(7-azaspiro[3.5]nonan-7-yl)-2-butenamide], the IC50 in assay [6] amounted to 3.06 µM.
`COc1cc2ncnc(Nc3ccc(F)c(Cl)c3)c2cc1NC(=O)/C=C/CN1CCC2(CC2)C1` [Compound 26, (E)-N-[4-(3-chloro-4-fluorophenylamino)-7-methoxyquinazolin-6-yl]-4-(5-azaspiro[2.4]heptan-5-yl)-2-butenamide]: the IC50 is 85.6 nM in assay [4] and 3.07 µM in assay [6].
Regarding `COc1cc2ncnc(Nc3ccc(F)c(Cl)c3)c2cc1NC(=O)/C=C/CN1CCC2(CCC2)C1` [Compound 27, (E)-N-[4-(3-chloro-4-fluorophenylamino)-7-methoxyquinazolin-6-yl]-4-[6-azaspiro[3.4]octan-6-yl]-2-butenamide], the IC50 in assay [4] came to 91.9 nM; in assay [6], 3.19 µM.
As to `COc1cc2ncnc(Nc3ccc(F)c(Cl)c3)c2cc1NC(=O)/C=C/CN1CCCC2(COC2)C1` [Compound 28, (E)-N-[4-(3-chloro-4-fluorophenylamino)-7-methoxyquinazolin-6-yl]-4-[2-oxa-6-azaspiro[3.5]nonan-6-yl]-2-butenamide], the IC50 in assay [4] amounted to 39 nM.
On the same count and under the same terms, the same measure for `COc1cc2ncnc(Nc3ccc(F)c(Cl)c3)c2cc1NC(=O)/C=C/CN1CCC2(CC1)COC2` [Compound 29, (E)-N-[4-(3-chloro-4-fluorophenylamino)-7-methoxyquinazolin-6-yl]-4-(2-oxa-7-azaspiro[3.5]nonan-7-yl)-2-butenamide]: 57.1 nM.
On to `COc1cc2ncnc(Nc3ccc(F)c(Cl)c3)c2cc1NC(=O)/C=C/CN1CCC2(CC1)CC2` [Compound 30, (E)-N-[4-(3-chloro-4-fluorophenylamino)-7-methoxyquinazolin-6-yl]-4-(6-azaspiro[2.5]octan-6-yl)-2-butenamide], for which the half-inhibitory concentration (IC50) in assay [6] came to 3.35 µM.
For the compound `COc1cc2ncnc(Nc3ccc(F)c(Cl)c3)c2cc1NC(=O)/C=C/CN1CCCCC1` [PF-00299804, reference compound], the figures for the IC50 in assay [4], in assay [5] and in assay [6] were 356 nM, 548 nM and 3.96 µM, respectively.
